Laboratory results taken from ChEMBL document CHEMBL3045652, “Biorational glycol diesters as dietary toxins versus bioefficacy of sucrose octanoate against lepidopteran larvae” (Ind Crops Prod, 2012).
In brackets after ≈: the same amount, converted by molar mass. Activity calls are given as the source filed them. The rule behind the calls is not given here.

Key:
Spodoptera litura [1] = test: Antifeedant activity against third-instar larval stage of Spodoptera litura fed with artificial diet containing compound assessed as relative growth rate at 3.34 mg/ml after 3 days (reference value: 1.37 +/- 0.12 mg/mg/day); format: functional
Spodoptera litura [2] = test: Antifeedant activity against third-instar larval stage of Spodoptera litura fed with artificial diet containing compound assessed as relative consumption rate at 3.34 mg/ml after 3 days (reference value: 2.13 +/- 0.18 mg/mg/day); format: functional
Spodoptera litura [3] = test: Antifeedant activity against third-instar larval stage of Spodoptera litura fed with artificial diet containing compound assessed as efficiency index of ingested food at 3.34 mg/ml after 3 days (reference value: 64.5%); format: functional
Spodoptera litura [4] = test: Insecticidal activity against second-instar larval stage of Spodoptera litura fed with artificial diet containing compound assessed as growth inhibition after 7 days; format: functional, organism-based; conditions: for EC50: 168 h
Spodoptera litura [5] = test: Insecticidal activity against second-instar larval stage of Spodoptera litura assessed as increase in mortality applied as spray at 1 to 10 mg/ml after 72 hr; format: functional, organism-based
Helicoverpa armigera [6] = test: Insecticidal activity against second-instar larval stage of Helicoverpa armigera assessed as increase in mortality applied as spray at 1 to 10 mg/ml after 72 hr; format: functional, organism-based
Helicoverpa armigera [7] = test: Insecticidal activity against second-instar larval stage of Helicoverpa armigera fed with artificial diet containing compound assessed as mortality after 7 days; format: functional; conditions: 168 h
Spodoptera litura [8] = test: Insecticidal activity against second-instar larval stage of Spodoptera litura fed with artificial diet containing compound assessed as mortality after 7 days; format: functional; conditions: 168 h
Helicoverpa armigera [9] = test: Insecticidal activity against second-instar larval stage of Helicoverpa armigera fed with artificial diet containing compound assessed as growth inhibition after 7 days; format: functional, organism-based; conditions: for EC50: 168 h
Helicoverpa armigera [10] = test: Antifeedant activity against third-instar larval stage of Helicoverpa armigera fed with artificial diet containing compound assessed as efficiency index of ingested food at 5.16 mg/ml after 3 days (reference value: 52%); format: functional
Helicoverpa armigera [11] = test: Antifeedant activity against third-instar larval stage of Helicoverpa armigera fed with artificial diet containing compound assessed as relative growth rate at 5.16 mg/ml after 3 days (reference value: 0.97 +/- 0.13 mg/mg/day); format: functional
Helicoverpa armigera [12] = test: Antifeedant activity against third-instar larval stage of Helicoverpa armigera fed with artificial diet containing compound assessed as relative consumption rate at 5.16 mg/ml after 3 days (reference value: 1.88 +/- 0.14 mg/mg/day); format: functional
Spodoptera litura [13] = test: Antifeedant activity against third-instar larval stage of Spodoptera litura fed with artificial diet containing compound assessed as relative growth rate at 5.9 mg/ml after 3 days (reference value: 1.37 +/- 0.12 mg/mg/day); format: functional
Spodoptera litura [14] = test: Antifeedant activity against third-instar larval stage of Spodoptera litura fed with artificial diet containing compound assessed as relative consumption rate at 5.9 mg/ml after 3 days (reference value: 2.13 +/- 0.18 mg/mg/day); format: functional
Spodoptera litura [15] = test: Antifeedant activity against third-instar larval stage of Spodoptera litura fed with artificial diet containing compound assessed as efficiency index of ingested food at 5.9 mg/ml after 3 days (reference value: 64.5%); format: functional
Helicoverpa armigera [16] = test: Antifeedant activity against third-instar larval stage of Helicoverpa armigera fed with artificial diet containing compound assessed as relative growth rate at 8.21 mg/ml after 3 days (reference value: 0.97 +/- 0.13 mg/mg/day); format: functional
Helicoverpa armigera [17] = test: Antifeedant activity against third-instar larval stage of Helicoverpa armigera fed with artificial diet containing compound assessed as efficiency index of ingested food at 8.21 mg/ml after 3 days (reference value: 52%); format: functional
Helicoverpa armigera [18] = test: Antifeedant activity against third-instar larval stage of Helicoverpa armigera fed with artificial diet containing compound assessed as relative consumption rate at 8.21 mg/ml after 3 days (reference value: 1.88 +/- 0.14 mg/mg/day); format: functional
Helicoverpa armigera [19] = test: Antifeedant activity against third-instar larval stage of Helicoverpa armigera fed with artificial diet containing compound assessed as efficiency index of ingested food at 7.38 mg/ml after 3 days (reference value: 52%); format: functional
Spodoptera litura [20] = test: Antifeedant activity against third-instar larval stage of Spodoptera litura fed with artificial diet containing compound assessed as relative growth rate at 5.6 mg/ml after 3 days (reference value: 1.37 +/- 0.12 mg/mg/day); format: functional
Spodoptera litura [21] = test: Antifeedant activity against third-instar larval stage of Spodoptera litura fed with artificial diet containing compound assessed as relative consumption rate at 5.6 mg/ml after 3 days (reference value: 2.13 +/- 0.18 mg/mg/day); format: functional
Spodoptera litura [22] = test: Antifeedant activity against third-instar larval stage of Spodoptera litura fed with artificial diet containing compound assessed as efficiency index of ingested food at 5.6 mg/ml after 3 days (reference value: 64.5%); format: functional
Helicoverpa armigera [23] = test: Antifeedant activity against third-instar larval stage of Helicoverpa armigera fed with artificial diet containing compound assessed as relative growth rate at 7.38 mg/ml after 3 days (reference value: 0.97 +/- 0.13 mg/mg/day); format: functional
Helicoverpa armigera [24] = test: Antifeedant activity against third-instar larval stage of Helicoverpa armigera fed with artificial diet containing compound assessed as relative consumption rate at 7.38 mg/ml after 3 days (reference value: 1.88 +/- 0.14 mg/mg/day); format: functional
Helicoverpa armigera [25] = test: Antifeedant activity against third-instar larval stage of Helicoverpa armigera fed with artificial diet containing compound assessed as efficiency index of ingested food at 9.88 mg/ml after 3 days (reference value: 52%); format: functional
Spodoptera litura [26] = test: Antifeedant activity against third-instar larval stage of Spodoptera litura fed with artificial diet containing compound assessed as relative consumption rate at 8.25 mg/ml after 3 days (reference value: 2.13 +/- 0.18 mg/mg/day); format: functional
Spodoptera litura [27] = test: Antifeedant activity against third-instar larval stage of Spodoptera litura fed with artificial diet containing compound assessed as efficiency index of ingested food at 8.25 mg/ml after 3 days (reference value: 64.5%); format: functional
Spodoptera litura [28] = test: Antifeedant activity against third-instar larval stage of Spodoptera litura fed with artificial diet containing compound assessed as relative growth rate at 8.25 mg/ml after 3 days (reference value: 1.37 +/- 0.12 mg/mg/day); format: functional
Helicoverpa armigera [29] = test: Antifeedant activity against third-instar larval stage of Helicoverpa armigera fed with artificial diet containing compound assessed as relative growth rate at 9.88 mg/ml after 3 days (reference value: 0.97 +/- 0.13 mg/mg/day); format: functional
Helicoverpa armigera [30] = test: Antifeedant activity against third-instar larval stage of Helicoverpa armigera fed with artificial diet containing compound assessed as relative consumption rate at 9.88 mg/ml after 3 days (reference value: 1.88 +/- 0.14 mg/mg/day); format: functional

Which Activity (Spodoptera litura [1]) does the source give for CCCCC(=O)OCCOC(=O)CCCC [ETHYLENE GLYCOL DIPENTANOATE] here?
Its Activity is 0.64 mg/mg/day.

What about the Activity (Spodoptera litura [2]) of the same compound?
The Activity was 2.09 mg/mg/day.

And the ECI (Spodoptera litura [3])?
The ECI was 4%.

And the “growth inhibition (GI)” value (Spodoptera litura [4])?
The value was “Dose-dependent effect”.

And the EC50 (Spodoptera litura [4])?
The EC50 was 1840 µg/mL (≈ 7.99 mM).

What about the Activity (Spodoptera litura [5]) of the same compound?
The Activity was “Active”.

What about the Activity (Helicoverpa armigera [6]) of the same compound?
The Activity was “Active”.

What about the LC50 (Helicoverpa armigera [7]) of the same compound?
The LC50 was 2000 µg/mL (≈ 8.68 mM).

And the LC50 (Spodoptera litura [8])?
Its LC50 is 2340 µg/mL (≈ 10.2 mM).

And the “growth inhibition (GI)” value (Helicoverpa armigera [9])?
Its value is “Dose-dependent effect”.

What about the EC50 (Helicoverpa armigera [9]) of the same compound?
The EC50 was 2120 µg/mL (≈ 9.21 mM).

And the ECI (Helicoverpa armigera [10])?
Its ECI is 31.9%.

What about the Activity (Helicoverpa armigera [11]) of the same compound?
The Activity was 0.58 mg/mg/day.

What about the Activity (Helicoverpa armigera [12]) of the same compound?
The Activity was 1.82 mg/mg/day.

For CCCC(=O)OCC(C)OC(=O)CCC (stereo not given), which Activity (Spodoptera litura [13]) is on record?
Its Activity is 1.04 mg/mg/day.

And the Activity (Spodoptera litura [14])?
The Activity was 1.98 mg/mg/day.

And the ECI (Spodoptera litura [15])?
Its ECI is 12%.

What about the “growth inhibition (GI)” value (Spodoptera litura [4]) of the same compound?
Its value is “Dose-dependent effect”.

What about the EC50 (Spodoptera litura [4]) of the same compound?
Its EC50 is 4210 µg/mL (≈ 19.5 mM).

And the LC50 (Helicoverpa armigera [7])?
The LC50 was 2000 µg/mL (≈ 9.25 mM).

And the LC50 (Spodoptera litura [8])?
The LC50 was 2000 µg/mL (≈ 9.25 mM).

What about the “growth inhibition (GI)” value (Helicoverpa armigera [9]) of the same compound?
Its value is “Dose-dependent effect”.

What about the EC50 (Helicoverpa armigera [9]) of the same compound?
Its EC50 is 5670 µg/mL (≈ 26.2 mM).

What about the Activity (Helicoverpa armigera [16]) of the same compound?
Its Activity is 0.67 mg/mg/day.

And the ECI (Helicoverpa armigera [17])?
Its ECI is 38.2%.

And the Activity (Helicoverpa armigera [18])?
The Activity was 1.77 mg/mg/day.

How did the ECI (Helicoverpa armigera [19]) turn out when CC(COC(=O)C(C)C)OC(=O)C(C)C (stereo not given) was run?
The ECI was 30.4%.

What about the Activity (Spodoptera litura [20]) of the same compound?
The Activity was 1.09 mg/mg/day.

And the Activity (Spodoptera litura [21])?
The Activity was 2.12 mg/mg/day.

What about the ECI (Spodoptera litura [22]) of the same compound?
The ECI was 13%.

And the “growth inhibition (GI)” value (Spodoptera litura [4])?
The value was “Dose-dependent effect”.

What about the EC50 (Spodoptera litura [4]) of the same compound?
The EC50 was 5210 µg/mL (≈ 24.1 mM).

What about the LC50 (Helicoverpa armigera [7]) of the same compound?
Its LC50 is 2000 µg/mL (≈ 9.25 mM).

And the LC50 (Spodoptera litura [8])?
Its LC50 is 2000 µg/mL (≈ 9.25 mM).

And the “growth inhibition (GI)” value (Helicoverpa armigera [9])?
Its value is “Dose-dependent effect”.

And the EC50 (Helicoverpa armigera [9])?
The EC50 was 7340 µg/mL (≈ 33.9 mM).

What about the Activity (Helicoverpa armigera [23]) of the same compound?
Its Activity is 0.58 mg/mg/day.

What about the Activity (Helicoverpa armigera [24]) of the same compound?
The Activity was 1.91 mg/mg/day.

With CCCC(CC)C(=O)OCCCCCOC(=O)C(CC)CCC (stereo not given) [PENTANE-1,5-DI-(2-ETHYLHEXANOATE)] as the compound, how does the ECI (Helicoverpa armigera [25]) read?
Its ECI is 40%.

And the Activity (Spodoptera litura [26])?
Its Activity is 1.99 mg/mg/day.

What about the ECI (Spodoptera litura [27]) of the same compound?
The ECI was 46%.

What about the “growth inhibition (GI)” value (Spodoptera litura [4]) of the same compound?
Its value is “Dose-dependent effect”.

And the EC50 (Spodoptera litura [4])?
The EC50 was 7850 µg/mL (≈ 23.9 mM).

And the Activity (Spodoptera litura [28])?
Its Activity is 1.06 mg/mg/day.

And the LC50 (Helicoverpa armigera [7])?
Its LC50 is 2000 µg/mL (≈ 6.09 mM).

And the LC50 (Spodoptera litura [8])?
The LC50 was 2000 µg/mL (≈ 6.09 mM).

What about the “growth inhibition (GI)” value (Helicoverpa armigera [9]) of the same compound?
Its value is “Dose-dependent effect”.

What about the EC50 (Helicoverpa armigera [9]) of the same compound?
Its EC50 is 5560 µg/mL (≈ 16.9 mM).

And the Activity (Helicoverpa armigera [29])?
Its Activity is 0.72 mg/mg/day.

And the Activity (Helicoverpa armigera [30])?
Its Activity is 1.8 mg/mg/day.
